From the supplement of paper PMC10307832

How the values were obtained:
Test in all cases: relative viability (nuclei count vs DMSO), 5 days (fraction); higher = more cells survive
XMD8-85 + Linsitinib = compound: CN1CCN(CC1)C2=CC(=C(C=C2)NC3=NC=C4C(=N3)N(C5=CC=CC=C5C(=O)N4C)C)OC [XMD8-85] + C[C@]1(O)C[C@@H](c2nc(-c3ccc4ccc(-c5ccccc5)nc4c3)c3c(N)nccn32)C1 [Linsitinib] (partner 1 µM)
In short: (§1)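 Nuclei were stained with Hoechst during a one-step fixation (final 0.05% Triton X-100, 1% formaldehyde, 1 ug/ml Hoechst) carried out 5 days after dosing, then counted on 4× images. The cells, lung cancer lines in 1536-well plates, had been dosed by pin tool the day after seeding with one drug alone or a fixed anchor-drug dose plus five library-drug doses (not always all listed) in √10 steps. Relative viability is the nuclei count in treated wells divided by that in vehicle wells, and each value is the median of duplicate plates.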

XMD8-85 + Phenformin = compound: CN1CCN(CC1)C2=CC(=C(C=C2)NC3=NC=C4C(=N3)N(C5=CC=CC=C5C(=O)N4C)C)OC [XMD8-85] + N=C(N)NC(=N)NCCc1ccccc1 [Phenformin] (partner 250 µM)
In short: as §1

XMD8-85 + OSI-027 = compound: CN1CCN(CC1)C2=CC(=C(C=C2)NC3=NC=C4C(=N3)N(C5=CC=CC=C5C(=O)N4C)C)OC [XMD8-85] + COc1cccc2cc(-c3nc([C@H]4CC[C@H](C(=O)O)CC4)n4ncnc(N)c34)[nH]c12 [OSI-027] (partner 0.5 µM)
In short: as §1

4EGI-1 + Luminespib = compound: O=C(O)C(Cc1ccccc1[N+](=O)[O-])=NNc1nc(-c2ccc(Cl)c(Cl)c2)cs1 (mixture of isomers) [4EGI-1] + CCNC(=O)c1noc(-c2cc(C(C)C)c(O)cc2O)c1-c1ccc(CN2CCOCC2)cc1 [Luminespib] (partner 0.01 µM)
In short: as §1

Cell Line | relative viability (XMD8-85 + Linsitinib; first compound 0.08 µM) | relative viability (XMD8-85 + Linsitinib; first compound 0.253 µM) | relative viability (XMD8-85 + Linsitinib; first compound 0.8 µM) | relative viability (XMD8-85 + Linsitinib; first compound 2.53 µM) | relative viability (XMD8-85 + Linsitinib; first compound 8 µM) | relative viability (XMD8-85 + Phenformin; first compound 0.08 µM) | relative viability (XMD8-85 + Phenformin; first compound 0.253 µM) | relative viability (XMD8-85 + Phenformin; first compound 0.8 µM) | relative viability (XMD8-85 + Phenformin; first compound 2.53 µM) | relative viability (XMD8-85 + Phenformin; first compound 8 µM) | relative viability (XMD8-85 + OSI-027; first compound 0.08 µM) | relative viability (XMD8-85 + OSI-027; first compound 0.253 µM) | relative viability (XMD8-85 + OSI-027; first compound 0.8 µM) | relative viability (XMD8-85 + OSI-027; first compound 2.53 µM) | relative viability (XMD8-85 + OSI-027; first compound 8 µM) | relative viability (4EGI-1 + Luminespib; first compound 0.5 µM) | relative viability (4EGI-1 + Luminespib; first compound 1.581 µM) | relative viability (4EGI-1 + Luminespib; first compound 5 µM) | relative viability (4EGI-1 + Luminespib; first compound 15.81 µM) | relative viability (4EGI-1 + Luminespib; first compound 50 µM)
NCI-H1793 | 0.78 | 0.703 | 1.04 | 0.976 | 0.907 | 0.402 | 0.409 | 0.38 | 0.375 | 0.317 | 0.317 | 0.259 | 0.243 | 0.286 | 0.276 | 0.246 | 0.246 | 0.197 | 0.176 | 0.139
NCI-H1703 | 0.496 | 1.1 |  | 0.773 | 0.641 |  |  |  |  |  |  |  |  |  |  |  |  |  |  | 
EKVX | 0.808 | 1.06 | 1.03 | 1.18 | 0.851 | 0.226 | 0.218 | 0.228 | 0.245 | 0.202 | 0.746 | 0.872 | 0.661 | 0.73 |  | 0.847 | 0.628 | 0.925 | 0.701 | 0.895
COR-L23 | 0.972 | 0.989 | 1.02 | 0.99 | 0.497 | 0.384 | 0.452 | 0.484 | 0.476 | 0.366 | 0.592 |  | 0.91 | 0.733 | 0.597 | 0.843 | 0.519 | 0.77 | 0.579 | 0.0992
SW 1573 | 0.873 | 0.802 |  | 0.698 | 0.655 | 0.466 | 0.37 | 0.392 | 0.389 | 0.306 | 0.566 | 0.61 | 0.669 | 0.607 | 0.327 | 0.227 | 0.198 | 0.248 | 0.168 | 0.116
NCI-H1648 |  |  |  |  |  |  |  |  |  |  | 0.248 | 0.268 |  |  | 0.228 |  |  |  |  | 
COR-L 105 | 0.913 | 1.02 | 0.779 | 0.902 | 0.372 | 0.406 | 0.445 | 0.453 | 0.432 | 0.248 | 0.6 |  | 0.589 | 0.512 | 0.324 | 1.04 | 0.648 | 0.801 | 0.667 | 0.598
NCI-H2023 | 0.564 | 0.811 | 0.76 | 0.657 | 0.34 | 0.347 | 0.398 | 0.422 | 0.355 | 0.327 | 0.314 | 0.434 | 0.402 | 0.37 | 0.248 | 0.897 | 0.544 | 0.798 | 0.203 | 0.0714
NCI-H1355 | 0.807 | 0.913 | 0.828 | 0.715 | 0.829 | 0.417 | 0.409 | 0.422 | 0.437 | 0.408 | 0.385 | 0.43 | 0.403 | 0.448 | 0.309 | 0.708 | 0.706 | 0.762 | 0.445 | 0.326
NCI-H1975 | 1.01 | 0.908 | 0.981 | 1.03 | 0.498 | 0.402 | 0.409 | 0.446 | 0.464 | 0.312 | 0.53 | 0.678 | 0.807 | 0.762 | 0.445 | 0.337 |  | 0.214 | 0.261 | 0.159
NCI-H1299 | 0.881 | 1.06 | 0.973 | 0.981 | 0.654 |  |  |  |  |  |  |  |  |  |  |  |  |  |  | 
EPLC-272H |  | 1.24 | 1.02 | 1.2 | 0.912 | 0.281 | 0.272 | 0.318 | 0.358 | 0.272 | 0.282 | 0.251 | 0.266 | 0.305 | 0.27 | 0.498 |  | 0.318 | 0.251 | 0.206
Calu-6 | 0.985 | 0.946 | 0.994 | 0.894 | 0.788 |  |  |  |  |  |  |  |  |  |  |  |  |  |  | 
EBC-1 | 0.683 | 0.856 | 0.753 | 0.811 | 0.293 |  |  |  |  |  |  |  |  |  |  |  |  |  |  | 
A549 | 0.602 | 0.476 | 0.579 | 0.592 | 0.594 | 0.0975 | 0.198 | 0.149 | 0.274 | 0.193 |  |  |  |  |  |  |  |  |  | 
IA-LM | 0.385 | 0.563 | 0.562 | 0.393 | 0.166 |  |  |  |  |  |  |  |  |  |  |  |  |  |  | 
HCC-366 | 0.69 | 0.687 | 0.764 |  | 0.352 | 0.598 | 0.611 | 0.617 | 0.63 | 0.649 | 0.932 | 1.15 | 1.08 | 0.917 | 0.794 |  |  |  |  | 
NCI-H522 |  |  |  |  |  | 0.664 | 0.697 | 0.338 | 0.367 | 0.67 | 0.659 | 0.747 | 0.66 | 0.828 | 0.596 | 1.18 | 0.612 | 1.13 | 1.33 | 0.711
NCI-H2342 |  |  |  |  |  | 0.646 | 0.56 | 0.682 | 0.608 | 0.599 | 0.606 | 0.605 |  | 0.594 | 0.641 | 0.854 | 0.758 | 0.724 | 0.904 | 0.677
NCI-H2170 |  |  |  |  |  | 0.4 | 0.431 | 0.447 | 0.41 | 0.366 | 0.676 | 0.685 | 0.739 |  | 0.613 | 0.931 | 0.635 | 0.778 | 0.741 | 0.352
NCI-H1650 |  |  |  |  |  | 0.411 | 0.449 | 0.401 | 0.36 | 0.178 | 0.674 | 0.47 | 0.599 | 0.637 | 0.357 | 0.197 |  | 0.19 | 0.203 | 0.221
HCC-78 | 0.594 | 0.532 | 0.445 | 0.443 | 0.382 | 0.705 | 0.84 | 0.695 | 0.665 | 0.46 | 0.367 | 0.334 | 0.391 | 0.35 | 0.286 |  |  |  |  | 
ChaGo-K-1 |  |  |  |  |  | 0.421 | 0.533 | 0.493 | 0.512 |  | 0.555 | 0.532 | 0.599 | 0.605 | 0.422 | 0.631 | 0.38 | 0.62 | 0.517 | 0.491
